{"source": "paper PMC4890880", "about": "(ACS infectious diseases, 2016)", "key": {"HepG2-A16-CD81EGFP cells": {"system": "HepG2-A16-CD81EGFP cells", "details": "sheet 2nd round; for IC50: read-out: Tox_IC50, HepG2 cytotoxicity; for Tox_max_inhibition (%): maximal inhibition in dose response"}, "[1]": {"system": "Plasmodium berghei (Pb-Luc) exoerythrocytic-stage parasites", "details": "for normalized signal at concentration 0.000508053 / normalized signal at concentration 0.00152416 / normalized signal at concentration 0.00457247 / normalized signal at concentration 0.0137174 / normalized signal at concentration 0.0411523 / normalized signal at concentration 0.123457 / normalized signal at concentration 0.37037 / normalized signal at concentration 1.11111 / normalized signal at concentration 3.33333 / normalized signal at concentration 10: fraction of control; for IC50: read-out: PbLuc_IC50; for IC50 / PbLuc_max_inhibition (%): sheet 2nd round; for PbLuc_max_inhibition (%): maximal inhibition in dose response"}, "[2]": {"details": "second series of columns (replicate)"}, "[3]": {"details": "first series of dose-response columns"}, "[4]": {"details": "second series of dose-response columns"}}, "note": "Where two headings read alike, the source gives them in different places."}
{"compound": "C[C@@H]1CCCCO[C@H](CN(C)S(=O)(=O)c2ccc(F)cc2)[C@@H](C)CN([C@@H](C)CO)C(=O)c2cc(N(C)C)ccc2O1", "note": "[BRD-K27035180-001-01-0]", "values": [{"measurement": "IC50", "setting": "HepG2-A16-CD81EGFP cells", "value": "> 10", "unit": "µM"}, {"measurement": "Tox_max_inhibition (%)", "setting": "HepG2-A16-CD81EGFP cells", "value": 10, "unit": "%"}, {"measurement": "normalized signal at concentration 0.000508053", "setting": "[1]; first series of columns", "value": 0.9801}, {"measurement": "normalized signal at concentration 0.00152416", "setting": "[1]; first series of columns", "value": 1.117}, {"measurement": "normalized signal at concentration 0.00457247", "setting": "[1]; first series of columns", "value": 0.8737}, {"measurement": "normalized signal at concentration 0.0137174", "setting": "[1]; first series of columns", "value": 0.9285}, {"measurement": "normalized signal at concentration 0.0411523", "setting": "[1]; first series of columns", "value": 1.068}, {"measurement": "normalized signal at concentration 0.123457", "setting": "[1]; first series of columns", "value": 0.9867}, {"measurement": "normalized signal at concentration 0.37037", "setting": "[1]; first series of columns", "value": 0.8491}, {"measurement": "normalized signal at concentration 1.11111", "setting": "[1]; first series of columns", "value": 1.048}, {"measurement": "normalized signal at concentration 3.33333", "setting": "[1]; first series of columns", "value": 0.9262}, {"measurement": "normalized signal at concentration 10", "setting": "[1]; first series of columns", "value": 0.8261}, {"measurement": "IC50", "setting": "[1]; Pb-Luc exoerythrocytic stage, 10-point dose response, top concentration 10", "value": "> 10", "unit": "µM"}, {"measurement": "normalized signal at concentration 0.000508053", "setting": "[1]; [2]", "value": 0.9613}, {"measurement": "normalized signal at concentration 0.00152416", "setting": "[1]; [2]", "value": 1.064}, {"measurement": "normalized signal at concentration 0.00457247", "setting": "[1]; [2]", "value": 0.9935}, {"measurement": "normalized signal at concentration 0.0137174", "setting": "[1]; [2]", "value": 0.8637}, {"measurement": "normalized signal at concentration 0.0411523", "setting": "[1]; [2]", "value": 1.045}, {"measurement": "normalized signal at concentration 0.123457", "setting": "[1]; [2]", "value": 0.8684}, {"measurement": "normalized signal at concentration 0.37037", "setting": "[1]; [2]", "value": 1.143}, {"measurement": "normalized signal at concentration 1.11111", "setting": "[1]; [2]", "value": 0.8369}, {"measurement": "normalized signal at concentration 3.33333", "setting": "[1]; [2]", "value": 1.121}, {"measurement": "normalized signal at concentration 10", "setting": "[1]; [2]", "value": 0.5603}, {"measurement": "PbLuc_max_inhibition (%)", "setting": "[1]", "value": 44, "unit": "%"}]}
{"compound": "CN(C)C(=O)c1ccc(-c2ccc([C@@H]3[C@H]4CN(C(=O)CC5CC5)CC(=O)N4[C@H]3CO)cc2)cc1", "note": "[BRD-K27481961-001-01-1]", "values": [{"measurement": "IC50", "setting": "HepG2-A16-CD81EGFP cells", "value": "> 10", "unit": "µM"}, {"measurement": "Tox_max_inhibition (%)", "setting": "HepG2-A16-CD81EGFP cells", "value": 6, "unit": "%"}, {"measurement": "normalized signal at concentration 10", "setting": "[1]; [3]", "value": 1.04}, {"measurement": "normalized signal at concentration 0.000508053", "setting": "[1]; first series", "value": 0.88}, {"measurement": "normalized signal at concentration 0.00152416", "setting": "[1]; first series", "value": 0.98}, {"measurement": "normalized signal at concentration 0.00457247", "setting": "[1]; first series", "value": 1.01}, {"measurement": "normalized signal at concentration 0.0137174", "setting": "[1]; first series", "value": 0.77}, {"measurement": "normalized signal at concentration 0.0411523", "setting": "[1]; first series", "value": 0.91}, {"measurement": "normalized signal at concentration 0.123457", "setting": "[1]; first series", "value": 0.95}, {"measurement": "normalized signal at concentration 0.37037", "setting": "[1]; first series", "value": 0.98}, {"measurement": "normalized signal at concentration 1.11111", "setting": "[1]; first series", "value": 1.00}, {"measurement": "normalized signal at concentration 3.33333", "setting": "[1]; first series", "value": 0.94}, {"measurement": "IC50", "setting": "[1]; Broad compounds, dose response", "value": "> 10", "unit": "µM"}, {"measurement": "normalized signal at concentration 10", "setting": "[1]; [4]", "value": 0.89}, {"measurement": "normalized signal at concentration 0.000508053", "setting": "[1]; second series", "value": 1.05}, {"measurement": "normalized signal at concentration 0.00152416", "setting": "[1]; second series", "value": 1.04}, {"measurement": "normalized signal at concentration 0.00457247", "setting": "[1]; second series", "value": 0.89}, {"measurement": "normalized signal at concentration 0.0137174", "setting": "[1]; second series", "value": 0.89}, {"measurement": "normalized signal at concentration 0.0411523", "setting": "[1]; second series", "value": 0.96}, {"measurement": "normalized signal at concentration 0.123457", "setting": "[1]; second series", "value": 1.12}, {"measurement": "normalized signal at concentration 0.37037", "setting": "[1]; second series", "value": 1.12}, {"measurement": "normalized signal at concentration 1.11111", "setting": "[1]; second series", "value": 0.98}, {"measurement": "normalized signal at concentration 3.33333", "setting": "[1]; second series", "value": 1.20}, {"measurement": "PbLuc_max_inhibition (%)", "setting": "[1]", "value": 23, "unit": "%"}]}
{"compound": "CN(C)c1ccc2c(c1)[C@@H]1C[C@@H](CC(=O)NC3CCCCC3)O[C@@H](CO)[C@@H]1O2", "note": "[BRD-K29474997-001-01-2]", "values": [{"measurement": "IC50", "setting": "HepG2-A16-CD81EGFP cells", "value": "> 10", "unit": "µM"}, {"measurement": "Tox_max_inhibition (%)", "setting": "HepG2-A16-CD81EGFP cells", "value": 12, "unit": "%"}, {"measurement": "normalized signal at concentration 10", "setting": "[1]; [3]", "value": 1.33}, {"measurement": "normalized signal at concentration 0.000508053", "setting": "[1]; first series", "value": 1.31}, {"measurement": "normalized signal at concentration 0.00152416", "setting": "[1]; first series", "value": 1.11}, {"measurement": "normalized signal at concentration 0.00457247", "setting": "[1]; first series", "value": 1.19}, {"measurement": "normalized signal at concentration 0.0137174", "setting": "[1]; first series", "value": 0.90}, {"measurement": "normalized signal at concentration 0.0411523", "setting": "[1]; first series", "value": 0.87}, {"measurement": "normalized signal at concentration 0.123457", "setting": "[1]; first series", "value": 0.89}, {"measurement": "normalized signal at concentration 0.37037", "setting": "[1]; first series", "value": 0.92}, {"measurement": "normalized signal at concentration 1.11111", "setting": "[1]; first series", "value": 1.25}, {"measurement": "normalized signal at concentration 3.33333", "setting": "[1]; first series", "value": 0.99}, {"measurement": "IC50", "setting": "[1]; Broad compounds, dose response", "value": "> 10", "unit": "µM"}, {"measurement": "normalized signal at concentration 10", "setting": "[1]; [4]", "value": 1.28}, {"measurement": "normalized signal at concentration 0.000508053", "setting": "[1]; second series", "value": 1.12}, {"measurement": "normalized signal at concentration 0.00152416", "setting": "[1]; second series", "value": 1.06}, {"measurement": "normalized signal at concentration 0.00457247", "setting": "[1]; second series", "value": 1.06}, {"measurement": "normalized signal at concentration 0.0137174", "setting": "[1]; second series", "value": 1.04}, {"measurement": "normalized signal at concentration 0.0411523", "setting": "[1]; second series", "value": 1.09}, {"measurement": "normalized signal at concentration 0.123457", "setting": "[1]; second series", "value": 0.92}, {"measurement": "normalized signal at concentration 0.37037", "setting": "[1]; second series", "value": 0.91}, {"measurement": "normalized signal at concentration 1.11111", "setting": "[1]; second series", "value": 1.04}, {"measurement": "normalized signal at concentration 3.33333", "setting": "[1]; second series", "value": 1.16}, {"measurement": "PbLuc_max_inhibition (%)", "setting": "[1]", "value": 13, "unit": "%"}]}
{"compound": "COc1ccc(S(=O)(=O)N(C)C[C@H]2Oc3ccc(NC(=O)Cc4cn(C)c5ccccc45)cc3C(=O)N([C@H](C)CO)C[C@@H]2C)cc1", "note": "[BRD-K30240821-001-02-4]", "values": [{"measurement": "IC50", "setting": "HepG2-A16-CD81EGFP cells", "value": "> 10", "unit": "µM"}, {"measurement": "Tox_max_inhibition (%)", "setting": "HepG2-A16-CD81EGFP cells", "value": 8.48, "unit": "%"}, {"measurement": "normalized signal at concentration 10", "setting": "[1]; [3]", "value": 0.7772}, {"measurement": "normalized signal at concentration 0.000508053", "setting": "[1]; first series", "value": 0.8923}, {"measurement": "normalized signal at concentration 0.00152416", "setting": "[1]; first series", "value": 0.848}, {"measurement": "normalized signal at concentration 0.00457247", "setting": "[1]; first series", "value": 0.7066}, {"measurement": "normalized signal at concentration 0.0137174", "setting": "[1]; first series", "value": 0.8032}, {"measurement": "normalized signal at concentration 0.0411523", "setting": "[1]; first series", "value": 0.8311}, {"measurement": "normalized signal at concentration 0.123457", "setting": "[1]; first series", "value": 1.098}, {"measurement": "normalized signal at concentration 0.37037", "setting": "[1]; first series", "value": 0.9739}, {"measurement": "normalized signal at concentration 1.11111", "setting": "[1]; first series", "value": 0.9836}, {"measurement": "normalized signal at concentration 3.33333", "setting": "[1]; first series", "value": 0.9041}, {"measurement": "IC50", "setting": "[1]; Broad compounds, dose response", "value": "> 10", "unit": "µM"}, {"measurement": "normalized signal at concentration 10", "setting": "[1]; [4]", "value": 0.9286}, {"measurement": "normalized signal at concentration 0.000508053", "setting": "[1]; second series", "value": 0.993}, {"measurement": "normalized signal at concentration 0.00152416", "setting": "[1]; second series", "value": 0.893}, {"measurement": "normalized signal at concentration 0.00457247", "setting": "[1]; second series", "value": 0.9938}, {"measurement": "normalized signal at concentration 0.0137174", "setting": "[1]; second series", "value": 0.8741}, {"measurement": "normalized signal at concentration 0.0411523", "setting": "[1]; second series", "value": 1.056}, {"measurement": "normalized signal at concentration 0.123457", "setting": "[1]; second series", "value": 0.8643}, {"measurement": "normalized signal at concentration 0.37037", "setting": "[1]; second series", "value": 1.021}, {"measurement": "normalized signal at concentration 1.11111", "setting": "[1]; second series", "value": 1.07}, {"measurement": "normalized signal at concentration 3.33333", "setting": "[1]; second series", "value": 1.082}, {"measurement": "PbLuc_max_inhibition (%)", "setting": "[1]", "value": 29, "unit": "%"}]}
